Earlier results as cited in US20240325431A1, “COMPOSITION FOR PURIFICATION OF BIOFLUIDS” (BEACON MEDCARE (HK) LIMITED, priority 2018, published 2024).

Test system: plasma protein

C[C@H]1O[C@@H](O[C@H]2[C@@H](O)C[C@H](O[C@H]3[C@@H](O)C[C@H](O[C@H]4CC[C@@]5(C)[C@H](CC[C@@H]6[C@@H]5CC[C@]5(C)[C@@H](C7=CC(=O)OC7)CC[C@]65O)C4)O[C@@H]3C)O[C@@H]2C)C[C@H](O)[C@@H]1O [digitoxin]
binding rate to plasma protein: 91%

CN1C(C(=O)Nc2ccccn2)=C(O)c2sccc2S1(=O)=O [tenoxicam]
binding rate to plasma protein: 99%
